Blank lines part the entries; values can stand above or below the compound they belong to.
Experiments:
Ih channel = details: cited from earlier work
[1] = tested on: hyperpolarisation-activated inward cation current Ih in dorsal root ganglion (DRG) cells; test: Inhibition of hyperpolarisation-activated cation current (Ih), whole cell voltage clamp on cultured DRG cells; assay type: cell-based, rat; details: at 1E-5 M
[2] = tested on: marble burying behaviour in mice; test: Mouse Marble Burying Assay (BUR); assay type: in vivo; details: Mus musculus, sc; Table 3; read-out: BUR s.c. ED50
Procedure: This assay was carried out essentially according to the procedure described by Treit et al. (1981) Pharmacol Biochem Behav; 15; 619-626.
The results are presented as BUR ED50 (sc). This is the effective dose causing 50% inhibition of burying compared to control mice.

SMILES: CCN(c1ccccc1)c1cc(NC)[n+](C)c(C)n1 [ZD7288, 4-(N-ethyl-N-phenylamino)-1,2-dimethyl-6-(methyiamino)-pyrimidinium-chloride]
- IC50 (Ih channel; Harris and Constanti 1995, read-out: IC50 for blocking Ih): 2000 nM

SMILES: [Ba] [barium]
- block of the Ih channel (Ih channel; 1 mM barium (Ba2+)): not blocked

SMILES: [Cs] [caesium]
- concentration blocking Ih (Ih channel; Pape 1996): 1 to 5 mM

- melting point: 187 to 188 °C (dec.)
SMILES: C=CCC(N)c1ccccc1-c1noc2ncccc12.O=C(O)/C=C\C(=O)O (stereo not drawn) [16 (5), 2-(isoxazolo[5,4-b]pyridin-3-yl)-α-2-propenyl-benzenemethanamine (Z)-butenedioate]
- Ih amplitude, inhibition [1]: 90% inhibition at 1E-5
- ED50 [2]: 1.7 mg/kg

From patent publication US20020037885A1, “Therapeutic compounds” (priority 1999, published 2002)
